Tested on: 777334-354-R2-J4-PDC tumor spheroids with HUVEC/MSC, viability
Experiment: Anticancer human tumor 777334-354-R2-J4-PDC patient-derived pancreatic adenocarcinoma cell line growth inhibition [GQUAD]
Conditions: for IC50: curve of first compound; for viability, T/C: stronger effect = lower value
Summary of the method: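 Viability of tumor cells grown as complex spheroids with endothelial and stromal cells, exposed to drug combinations. Top concentration at or near clinical Cmax (else 10 microM), diluted in half-log increments.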

[1] = second compound 0.0316 µM, first compound 0.0316 µM
[2] = second compound 0.0316 µM, first compound 0.1 µM
[3] = second compound 0.0316 µM, first compound 0.316 µM
[4] = second compound 0.0316 µM, first compound 1 µM
[5] = second compound 0.0316 µM, first compound 3.16 µM
[6] = second compound 0.0316 µM, first compound 10 µM
[7] = second compound 0.1 µM, first compound 0.0316 µM
[8] = second compound 0.1 µM, first compound 0.1 µM
[9] = second compound 0.1 µM, first compound 0.316 µM
[10] = second compound 0.1 µM, first compound 1 µM
[11] = second compound 0.1 µM, first compound 3.16 µM
[12] = second compound 0.1 µM, first compound 10 µM
[13] = second compound 0.316 µM, first compound 0.0316 µM
[14] = second compound 0.316 µM, first compound 0.1 µM
[15] = second compound 0.316 µM, first compound 0.316 µM
[16] = second compound 0.316 µM, first compound 1 µM
[17] = second compound 0.316 µM, first compound 3.16 µM
[18] = second compound 0.316 µM, first compound 10 µM
[19] = second compound 1 µM, first compound 0.0316 µM
[20] = second compound 1 µM, first compound 0.1 µM
[21] = second compound 1 µM, first compound 0.316 µM
[22] = second compound 1 µM, first compound 1 µM
[23] = second compound 1 µM, first compound 3.16 µM
[24] = second compound 1 µM, first compound 10 µM
[25] = second compound 3.16 µM, first compound 0.0316 µM
[26] = second compound 3.16 µM, first compound 0.1 µM
[27] = second compound 3.16 µM, first compound 0.316 µM
[28] = second compound 3.16 µM, first compound 1 µM
[29] = second compound 3.16 µM, first compound 3.16 µM
[30] = second compound 3.16 µM, first compound 10 µM
[31] = second compound 10 µM, first compound 0.0316 µM
[32] = second compound 10 µM, first compound 0.1 µM
[33] = second compound 10 µM, first compound 0.316 µM
[34] = second compound 10 µM, first compound 1 µM
[35] = second compound 10 µM, first compound 3.16 µM
[36] = second compound 10 µM, first compound 10 µM
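Also: spheroids exposed to compounds for 7 days before readout.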

SMILES: C=CCn1c(=O)c2cnc(Nc3ccc(N4CCN(C)CC4)cc3)nc2n1-c1cccc(C(C)(C)O)n1 + Cc1cnc(CNC(=O)c2c(=O)c3ccc(N4CCCN(C)CC4)nc3n3c2sc2ccccc23)cn1
- IC50 (second compound 0.0316 µM): 619 nM
- IC50 (second compound 0.1 µM): 299 nM
- IC50 (second compound 0.316 µM): 400 nM
- IC50 (second compound 1 µM): 360 nM
- IC50 (second compound 3.16 µM): 162 nM
- IC50 (second compound 10 µM): 68.3 nM
- viability, T/C [1]: 88.6%
- viability, T/C [2]: 75.3%
- viability, T/C [3]: 64.8%
- viability, T/C [4]: 37.5%
- viability, T/C [5]: 37.9%
- viability, T/C [6]: 38.4%
- viability, T/C [7]: 78.4%
- viability, T/C [8]: 67.8%
- viability, T/C [9]: 50.2%
- viability, T/C [10]: 37%
- viability, T/C [11]: 37%
- viability, T/C [12]: 38.5%
- viability, T/C [13]: 73%
- viability, T/C [14]: 72.1%
- viability, T/C [15]: 52.6%
- viability, T/C [16]: 39.8%
- viability, T/C [17]: 39.5%
- viability, T/C [18]: 40.5%
- viability, T/C [19]: 65.2%
- viability, T/C [20]: 64.4%
- viability, T/C [21]: 51.2%
- viability, T/C [22]: 40.6%
- viability, T/C [23]: 42.4%
- viability, T/C [24]: 38.2%
- viability, T/C [25]: 62.8%
- viability, T/C [26]: 56.3%
- viability, T/C [27]: 44.5%
- viability, T/C [28]: 37.3%
- viability, T/C [29]: 39.1%
- viability, T/C [30]: 35.1%
- viability, T/C [31]: 57.3%
- viability, T/C [32]: 46.8%
- viability, T/C [33]: 38.6%
- viability, T/C [34]: 32.6%
- viability, T/C [35]: 36.7%
- viability, T/C [36]: 27.8%

SMILES: O=C(NO)c1cnc(N2CCN(S(=O)(=O)c3ccc4ccccc4c3)CC2)nc1 + Cc1cnc(CNC(=O)c2c(=O)c3ccc(N4CCCN(C)CC4)nc3n3c2sc2ccccc23)cn1
- IC50 (second compound 0.0316 µM): 726 nM
- IC50 (second compound 0.1 µM): 332 nM
- IC50 (second compound 0.316 µM): 537 nM
- IC50 (second compound 1 µM): 474 nM
- IC50 (second compound 3.16 µM): 331 nM
- IC50 (second compound 10 µM): < 31.6 nM
- viability, T/C [1]: 83.7%
- viability, T/C [2]: 71.9%
- viability, T/C [3]: 77.2%
- viability, T/C [4]: 39.7%
- viability, T/C [5]: 3.07%
- viability, T/C [6]: 0.21%
- viability, T/C [7]: 90.3%
- viability, T/C [8]: 63.1%
- viability, T/C [9]: 55.2%
- viability, T/C [10]: 36.6%
- viability, T/C [11]: 5.24%
- viability, T/C [12]: 0.33%
- viability, T/C [13]: 69.3%
- viability, T/C [14]: 72%
- viability, T/C [15]: 53.8%
- viability, T/C [16]: 42.7%
- viability, T/C [17]: 5.34%
- viability, T/C [18]: 0.23%
- viability, T/C [19]: 65.6%
- viability, T/C [20]: 60%
- viability, T/C [21]: 55%
- viability, T/C [22]: 37.7%
- viability, T/C [23]: 4.8%
- viability, T/C [24]: 0.13%
- viability, T/C [25]: 49%
- viability, T/C [26]: 53.8%
- viability, T/C [27]: 50.2%
- viability, T/C [28]: 31.5%
- viability, T/C [29]: 0.68%
- viability, T/C [30]: 0.12%
- viability, T/C [31]: 50.2%
- viability, T/C [32]: 44.8%
- viability, T/C [33]: 48.4%
- viability, T/C [34]: 0.22%
- viability, T/C [35]: 2.65%
- viability, T/C [36]: 0.22%

Source: PubChem BioAssay AID2060499 (Molecular Pharmacology Branch, DTP, NCI, 2025)
